Patent US20230270713A1, “Administration of Resiniferatoxin For Treatment of Bladder Pain or Bladder Cancer” (Sorrento Therapeutics, Inc., priority 2020, published 2023)

How the values were obtained:
[1] = test system: cats with FIC (Feline Idiopathic Cystitis); test: VSOM and Cystitis Events Survey combined effect in FIC cats; assay type: in vivo, cat; settings: for Cystitis ≥2 and VSOM ≥2 Point success, cats n/N / Cystitis ≥3 and VSOM ≥2 Point success, cats n/N / Cystitis ≥3 and VSOM ≥2 Point success, percent of cats / Cystitis ≥2 and VSOM ≥2 Point success, percent of cats: Day 28
Text: Treatment success was defined as “a reduction of at least 2 in total VSOM score at Day 3 and 28 compared to VSOM score at day 0.” A decrease of less than 2, no change, or an increase in total score was defined as treatment failure. Cats presenting an increase in any individual VSOM score were considered a treatment failure regardless of total VSOM score.
The use of the Cystitis Events Survey was exploratory, and no strict definition of success was applied to the results. However, and based on published literature, the results were described as follows: (1) percentage of cats per cohort with an average improvement of 2 or more points and no increase in any individual score on Day 28; and (2) percentage of cats per cohort with an average improvement of 3 or more points and no increase in any individual score on Day 28.
When the results were combined for VSOM improvement of ≥2 and cystitis improvement of ≥3, the effectiveness decreased from 100% to 80% (see Cohort 1). […] Overall, the decrease was approximately 20% in Cohorts 1-2.

[2] = test system: dogs with bladder cancer; test: Lower urinary tract symptom scale in dogs with bladder cancer (Example D); assay type: in vivo, dog; settings: 1.0 or 2.0 ug/ml intravesical
Procedure: Dogs with bladder cancer were treated with RTX as follows. Under general anesthesia, RTX was infused directly into the bladder using a foley catheter. RTX remained in the bladder for 30 minutes before removal.
6 dogs were enrolled and treated at the following doses: • <10 kg: RTX 25 ug diluted in 24 ml NaCl (1.0 ug/ml solution) • >10 kg: RTX 50 ug diluted in 48 ml NaCl (1.0 ug/ml solution)
7 dogs were then enrolled and treated at the following doses: • <10 kg: RTX 25 ug diluted in 11.5 ml NaCl (2.0 ug/ml solution) • 10-25 kg: RTX 50 ug diluted in 23 ml NaCl (2.0 ug/ml solution) • >25 kg: RTX 100 ug diluted in 46 ml NaCl (2.0 ug/ml solution)
Three dogs were treated twice with at least 28 days between treatments. Two dogs were lost to follow-up after day 0.
The primary endpoint was assessment of improvement of lower urinary tract signs with a 4-point lower urinary tract symptom scale (character of urination/degree of straining; frequency of urination (daytime); frequency of urination (nighttime); and blood in urine). The secondary endpoints were anti-cancer effect, as measured by bladder ultrasound, and quality of life.

[3] = test system: cats with FIC (Feline Idiopathic Cystitis); test: VSOM in cats with Feline Idiopathic Cystitis; assay type: in vivo, cat; settings: for VSOM treatment failure, number of cats / VSOM treatment failure, percent of cats: Day 28 vs Day 0
[4] = 6.25 μg (0.25 μg/mL), Day 0, n 6
[5] = 6.25 μg (0.25 μg/mL), Day 28, n 6
[6] = 12.5 μg (0.5 μg/mL), Day 0, n 6
[7] = 12.5 μg (0.5 μg/mL), Day 28, n 5
[8] = 12.5 μg (1.25 μg/mL), Day 0, n 6
[9] = 12.5 μg (1.25 μg/mL), Day 28, n 6

C=C(C)[C@]12C[C@@H](C)[C@@]34O[C@](Cc5ccccc5)(O[C@@H]1[C@@H]3C=C(COC(=O)Cc1ccc(O)c(OC)c1)C[C@]1(O)C(=O)C(C)=C[C@@H]41)O2 [RTX, resiniferatoxin]
Cystitis ≥2 and VSOM ≥2 Point success, cats n/N ([1]; 6.25 μg/25 mL (Cohort 2)): 3/6 | Cystitis ≥3 and VSOM ≥2 Point success, cats n/N ([1]; 6.25 μg/25 mL (Cohort 2)): 2/6 | Cystitis ≥3 and VSOM ≥2 Point success, percent of cats ([1]; 6.25 μg/25 mL (Cohort 2)): (33.3%) | Cystitis ≥2 and VSOM ≥2 Point success, cats n/N ([1]; 12.5 μg/10 mL (Cohort 4)): 4/6 | Cystitis ≥2 and VSOM ≥2 Point success, percent of cats ([1]; 12.5 μg/10 mL (Cohort 4)): (66.7%) | Cystitis ≥3 and VSOM ≥2 Point success, cats n/N ([1]; 12.5 μg/10 mL (Cohort 4)): 4/6 | Cystitis ≥3 and VSOM ≥2 Point success, percent of cats ([1]; 12.5 μg/10 mL (Cohort 4)): (66.7%) | Cystitis ≥2 and VSOM ≥2 Point success, cats n/N ([1]; 12.5 μg/25 mL (Cohort 3)): 6/6 | Cystitis ≥2 and VSOM ≥2 Point success, percent of cats ([1]; 12.5 μg/25 mL (Cohort 3)): (100%) | Cystitis ≥3 and VSOM ≥2 Point success, cats n/N ([1]; 12.5 μg/25 mL (Cohort 3)): 6/6 | Cystitis ≥3 and VSOM ≥2 Point success, percent of cats ([1]; 12.5 μg/25 mL (Cohort 3)): (100%) | Cystitis ≥2 and VSOM ≥2 Point success, cats n/N ([1]; 25 μg/25 mL (Cohort 1)): 4/5 | Cystitis ≥2 and VSOM ≥2 Point success, percent of cats ([1]; 25 μg/25 mL (Cohort 1)): (80%) | Cystitis ≥3 and VSOM ≥2 Point success, cats n/N ([1]; 25 μg/25 mL (Cohort 1)): 4/5 | decrease in effectiveness when VSOM and cystitis results are combined ([1]; Cohorts 1-2, overall): approximately 20% | Improvement of at Least 1 Score, percent of dogs ([2]; Day 7, n = 11): 54.5% | Improvement of at Least 2 Scores, percent of dogs ([2]; Day 7, n = 11): 36.4% | Improvement of at least 1 score (lower urinary tract symptom scale), number of dogs ([2]; Day 7, n = 11): 6 | Improvement of at least 2 scores (lower urinary tract symptom scale), number of dogs ([2]; Day 7, n = 11): 4 | Improvement of at Least 1 Score, percent of dogs ([2]; Day 14, n = 11): 72.7% | Improvement of at Least 2 Scores, percent of dogs ([2]; Day 14, n = 11): 45.5% | Improvement of at least 1 score (lower urinary tract symptom scale), number of dogs ([2]; Day 14, n = 11): 8 | Improvement of at least 2 scores (lower urinary tract symptom scale), number of dogs ([2]; Day 14, n = 11): 5 | Improvement of at Least 1 Score, percent of dogs ([2]; Day 28, n = 8): 75.0% | Improvement of at Least 2 Scores, percent of dogs ([2]; Day 28, n = 8): 50.0% | Improvement of at least 1 score (lower urinary tract symptom scale), number of dogs ([2]; Day 28, n = 8): 6 | Improvement of at least 2 scores (lower urinary tract symptom scale), number of dogs ([2]; Day 28, n = 8): 4 | Improvement of at Least 1 Score, percent of dogs ([2]; Day 56, n = 5): 100% | Improvement of at Least 2 Scores, percent of dogs ([2]; Day 56, n = 5): 60.0% | Improvement of at least 1 score (lower urinary tract symptom scale), number of dogs ([2]; Day 56, n = 5): 5 | Improvement of at least 2 scores (lower urinary tract symptom scale), number of dogs ([2]; Day 56, n = 5): 3 | Improvement of at Least 1 Score, percent of dogs ([2]; Day 84, n = 3): 100% | Improvement of at Least 2 Scores, percent of dogs ([2]; Day 84, n = 3): 66.7% | Improvement of at least 1 score (lower urinary tract symptom scale), number of dogs ([2]; Day 84, n = 3): 3 | Improvement of at least 2 scores (lower urinary tract symptom scale), number of dogs ([2]; Day 84, n = 3): 2 | VSOM, Maximum [3, 4]: 12.0 | VSOM, Mean [3, 4]: 10.00 | VSOM, Median [3, 4]: 10.00 | VSOM, Minimum [3, 4]: 8.0 | VSOM, Maximum [3, 5]: 10.0 | VSOM, Mean [3, 5]: 6.00 | VSOM, Median [3, 5]: 6.50 | VSOM, Minimum [3, 5]: 1.0 | VSOM, Maximum [3, 6]: 12.0 | VSOM, Mean [3, 6]: 9.67 | VSOM, Median [3, 6]: 9.50 | VSOM, Minimum [3, 6]: 8.0 | VSOM, Maximum [3, 7]: 4.0 | VSOM, Mean [3, 7]: 1.60 | VSOM, Median [3, 7]: 1.00 | VSOM, Minimum [3, 7]: 0.0 | VSOM, Maximum [3, 8]: 10.0 | VSOM, Mean [3, 8]: 9.83 | VSOM, Median [3, 8]: 10.00 | VSOM, Minimum [3, 8]: 9.0 | VSOM, Maximum [3, 9]: 6.0 | VSOM, Mean [3, 9]: 3.83 | VSOM, Median [3, 9]: 4.00 | VSOM, Minimum [3, 9]: 2.0 | VSOM, Mean ([3]; 25 μg (1 μg/mL), Day 0, n 6): 10.00 | VSOM, Median ([3]; 25 μg (1 μg/mL), Day 0, n 6): 10.00 | VSOM, Minimum ([3]; 25 μg (1 μg/mL), Day 0, n 6): 9.0 | VSOM, Maximum ([3]; 25 μg (1 μg/mL), Day 28, n 5): 4.0 | VSOM, Mean ([3]; 25 μg (1 μg/mL), Day 28, n 5): 1.80 | VSOM, Median ([3]; 25 μg (1 μg/mL), Day 28, n 5): 1.00 | VSOM treatment failure, number of cats ([3]; Cohort 1 25 μg/25 mL): 0 n | VSOM treatment failure, percent of cats ([3]; Cohort 1 25 μg/25 mL): 0.0% | VSOM treatment failure, number of cats ([3]; Cohort 2 6.25 μg/25 mL): 3 n | VSOM treatment failure, percent of cats ([3]; Cohort 2 6.25 μg/25 mL): 50.0% | VSOM treatment failure, number of cats ([3]; Cohort 3 12.5 μg/25 mL): 0 n | VSOM treatment failure, percent of cats ([3]; Cohort 3 12.5 μg/25 mL): 0.0% | VSOM treatment failure, number of cats ([3]; Cohort 4 12.5 μg/10 mL): 2 n | VSOM treatment failure, percent of cats ([3]; Cohort 4 12.5 μg/10 mL): 33.3% | VSOM treatment failure, percent of cats ([3]; Overall (Cohorts 1-4)): (22.8%)
